Results published in paper PMC8594528 (Proceedings of the National Academy of Sciences of the …, 2021).

How the values were obtained:
GSK-3β [1] = molecular target: T1, GSK-3β (Homo sapiens, UniProt P49841); test: in vitro kinase assay with recombinant GSK-3β and immunoprecipitated N protein as substrate, single concentration ([…]); assay type: biochemical
T1 construct: gene GSK3B; human recombinant GSK-3β

GSK-3β [2] = molecular target: T1, GSK-3β; test: in vitro kinase assay with recombinant GSK-3β; tau or immunoprecipitated N protein as substrate, gel mobility shift; assay type: biochemical

T1 sequence (P49841 whole entry): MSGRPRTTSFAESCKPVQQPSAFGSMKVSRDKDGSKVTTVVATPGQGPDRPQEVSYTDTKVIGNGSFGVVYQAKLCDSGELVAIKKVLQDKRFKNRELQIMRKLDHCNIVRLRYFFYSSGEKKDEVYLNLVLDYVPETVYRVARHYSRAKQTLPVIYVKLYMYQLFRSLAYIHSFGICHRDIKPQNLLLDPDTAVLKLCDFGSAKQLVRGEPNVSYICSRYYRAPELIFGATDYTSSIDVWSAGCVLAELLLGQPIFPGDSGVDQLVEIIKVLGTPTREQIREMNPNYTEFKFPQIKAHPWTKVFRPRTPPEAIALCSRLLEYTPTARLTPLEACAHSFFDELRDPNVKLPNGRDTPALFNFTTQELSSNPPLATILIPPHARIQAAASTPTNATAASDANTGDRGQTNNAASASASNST

SMILES: Cc1c[nH]c(-c2cnc(NCCNc3ccc(C#N)cn3)nc2-c2ccc(Cl)cc2Cl)n1 [CHIR99021]
- in vitro kinase assay with recombinant GSK-3β and immunoprecipitated N protein a (GSK-3β [1]): 2 µM

SMILES: Cn1cc(C2=C(c3cn(C4CCN(Cc5ccccn5)CC4)c4ccccc34)C(=O)NC2=O)c2ccccc21 [Enzastaurin]
- in vitro kinase assay with recombinant GSK-3β; tau or immunoprecipitated N prote (GSK-3β [2]): 0.5 µM
